According to patent US9266871B2, “Trifluoromethyl-substituted fused pyrimidines and their use” (BAYER PHARMA AKTIENGESELLSCHAFT, priority 2013, dated 2016):

Biological target: T1, recombinant guanylate cyclase reporter cell line (Rattus norvegicus, UniProt P19686+P20595)
T1 construct: expressed in transfected cells; host or cells: recombinant reporter cell line
T1 sequence (P19686 1-690): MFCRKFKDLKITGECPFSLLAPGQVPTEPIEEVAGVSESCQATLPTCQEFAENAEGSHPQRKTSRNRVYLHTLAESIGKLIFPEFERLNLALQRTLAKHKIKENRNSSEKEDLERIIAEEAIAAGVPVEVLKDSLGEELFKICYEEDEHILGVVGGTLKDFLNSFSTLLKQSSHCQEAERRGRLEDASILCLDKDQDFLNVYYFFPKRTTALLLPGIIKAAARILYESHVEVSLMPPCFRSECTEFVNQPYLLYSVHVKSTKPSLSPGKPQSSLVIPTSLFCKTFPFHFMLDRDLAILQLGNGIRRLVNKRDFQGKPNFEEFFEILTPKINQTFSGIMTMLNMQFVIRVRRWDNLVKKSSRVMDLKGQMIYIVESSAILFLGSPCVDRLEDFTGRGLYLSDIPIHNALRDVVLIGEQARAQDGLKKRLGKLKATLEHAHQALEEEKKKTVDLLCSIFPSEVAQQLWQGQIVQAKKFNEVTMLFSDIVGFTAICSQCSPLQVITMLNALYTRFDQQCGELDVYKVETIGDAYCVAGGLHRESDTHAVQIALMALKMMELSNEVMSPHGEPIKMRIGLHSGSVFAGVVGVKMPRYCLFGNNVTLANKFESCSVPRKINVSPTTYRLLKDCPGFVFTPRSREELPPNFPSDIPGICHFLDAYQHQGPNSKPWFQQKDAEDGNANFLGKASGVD
T1 sequence (P20595 1-619): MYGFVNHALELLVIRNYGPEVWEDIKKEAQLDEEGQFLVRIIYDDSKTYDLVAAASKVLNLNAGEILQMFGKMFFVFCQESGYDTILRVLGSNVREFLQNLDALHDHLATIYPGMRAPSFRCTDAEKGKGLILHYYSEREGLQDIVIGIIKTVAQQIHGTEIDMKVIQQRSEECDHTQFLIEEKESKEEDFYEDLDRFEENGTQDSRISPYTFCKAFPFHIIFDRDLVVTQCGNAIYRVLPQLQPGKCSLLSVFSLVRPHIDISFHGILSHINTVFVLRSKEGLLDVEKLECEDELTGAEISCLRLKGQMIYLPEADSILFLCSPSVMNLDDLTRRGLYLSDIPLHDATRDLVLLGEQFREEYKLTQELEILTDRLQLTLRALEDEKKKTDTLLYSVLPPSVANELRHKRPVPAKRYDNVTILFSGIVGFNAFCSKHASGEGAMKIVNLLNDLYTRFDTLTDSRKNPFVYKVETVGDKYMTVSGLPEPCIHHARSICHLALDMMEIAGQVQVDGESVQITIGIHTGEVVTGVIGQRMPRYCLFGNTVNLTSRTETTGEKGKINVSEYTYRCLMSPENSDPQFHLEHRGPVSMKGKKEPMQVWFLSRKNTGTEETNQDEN
Assay: Effect on a recombinant guanylate cyclase reporter cell line
Format: cell-based
Protocol: B-2. Effect on a Recombinant Guanylate Cyclase Reporter Cell Line
The cellular activity of the compounds according to the invention is determined using a recombinant guanylate cyclase reporter cell line, as described in F. Wunder et al., Anal. Biochem. 339, 104-112 (2005).

Row | MEC (minimum effective concentration) [µM] | SMILES
1 | 0.1 | C[C@@]1(C(F)(F)F)C(=O)Nc2nc(-c3nn(Cc4ncccc4F)c4ncc(F)cc34)nc(NCCC(F)(F)F)c21 (single isomer, unassigned) [Example 1-1]
2 | 1.0 | C[C@]1(C(F)(F)F)C(=O)Nc2nc(-c3nn(Cc4ncccc4F)c4ncc(F)cc34)nc(NCCC(F)(F)F)c21 (single isomer, unassigned) [Example 1-2]
